According to patent US4470840A, “1-Triacontanol plant growth stimulator formulations” (Biochemical Research Corporation, priority 1981, dated 1984):

Assays:
Type in all cases: in vivo
[1] = tested on: Beans (cv. Blue Lakes Stringless, Early Bird); assay: Field trial: crop yield and seed size; details: 100 seeds, CaCl2 5 mM, no IAA, 1-triacontanol 0.25 mg/liter
Procedure: (§1) Field trials were conducted in Northern Virginia on plots that were replicated at least five items. Plots consisted of single rows of plants in blocks of three or more plots, with treatments being assigned randomly within each block.
(§2) Plants were fertilized with the fertilizers described in Table 1, and sprayed at air temperatures listed in the same Table. Spraying was usually avoided under windy conditions to avoid drift.

[2] = tested on: Sweet Corn (cv. Silver Queen, Early Sunglow, Jubilee); assay: Field trial: crop yield and seed size; details: for Percent increase in marketable yield: triacontanol 0.25 mg/l
Procedure: as §1, §2

[3] = tested on: Cucumbers (cv. Straight Eight, Improved White Spine); assay: Field trial: crop yield; details: for Increase (crop yield) / Fresh wt. (crop yield): cv. Improved White Spine, TRIACON-10, 1-triacontanol 0.25 mg/liter, pH 9.8
Procedure: as §1, §2

[4] = tested on: Field Corn (cv. Trojan TXS 94); assay: Field trial: crop yield and seed size; details: 1-triacontanol 0.25 mg/liter; for % increase (wt. of seed) / % increase (wt./15 ears) / Wt. of seed / Wt./15 ears: TRIACON-10, pH 10.4; for Percent increases (size of seeds) / Wt. of treated seed: cv. Trojan TXS 94, 1000 seeds; for Wt. of treated seed: control seed 252
Procedure: as §1
(§3) Plants were fertilized with the fertilizers described in Table 1, and sprayed at air temperatures listed in the same Table. Spraying was usually avoided under windy conditions to avoid drift. In the examples set forth herein, data were treated in a similar manner to those found in the greenhouse trials, with analysis of variance performed for each trial, and the use of a suitable statistical method for the analysis of results, preferably Duncan's multiple range test.

Peas (cv. Dark Skin) = assay: Field trial: marketable yield; details: 1-triacontanol 0.25 mg/liter, pH 8.7; for Fresh wt (marketable yield): per 12 plants per plot
Procedure: as §1, §3

Radishes (cv. Champion) = assay: Field trial: crop yield; details: 1-triacontanol 0.25 mg/liter, pH 9.7; for Dry wt. (crop yield): per twenty plants, without foliage
Procedure: as §1, §3

In the case of `CCCCCCCCCCCCCCCCCCCCCCCCCCCCCCO` [1-Triacontanol, 1-triacontanol], the “Percent increases (size of seeds)” value [1] is reported as “+54%”, the “Wt. of treated seed” value ([1]; control seed 18.1) is reported as 27.8 g and the “Percent increase in marketable yield” value ([2]; cv. Early Sunglow, CaCl2 10 mM, no IAA, pH 9.8) is reported as “+47%”. The “Percent increase in marketable yield” value ([2]; cv. Early Sunglow, CaCl2 50 mM, IAA 10 μM, pH 9.8) was “+20%”, the “Percent increase in marketable yield” value ([2]; cv. Jubilee, CaCl2 10 mM, no IAA, pH 9.7) was “+44%” and the “Percent increase in marketable yield” value ([2]; cv. Jubilee, CaCl2 50 mM, IAA 10 μM, pH 9.7) was “+31%”. For the same molecule, the “Percent increases (size of seeds)” value ([2]; cv. Silver Queen, 500 seeds, CaCl2 9 mM, no IAA, 1-triacontanol 0.25 mg/liter) was “+47%”, the “Wt. of treated seed” value ([2]; cv. Silver Queen, 500 seeds, CaCl2 9 mM, no IAA, 1-triacontanol 0.25 mg/liter, control seed 29.7 g) was 43.8 g and the “Percent increase in marketable yield” value ([2]; cv. Silver Queen, CaCl2 10 mM, no IAA, pH 10.4) was “+49%”. For the same molecule, the “Percent increase in marketable yield” value ([2]; cv. Silver Queen, CaCl2 50 mM, IAA 10 μM, pH 10.4) was “+16%”, the “Increases (field trial data for the previous year)” value ([2]; cv. Silver Queen, previous year, three out of three trials) was 51-54% and the “Increase (crop yield)” value ([3]; CaCl2 5 mM) was “+88%”. The “Fresh wt. (crop yield)” value ([3]; CaCl2 5 mM, control 9575 g) was 17980 g, the “Fresh wt. (crop yield)” value ([3]; CaCl2 50 mM) was 11725 g and the “Increase (crop yield)” value ([3]; CaCl2 50 mM) was “+22%”. For the same molecule, the “Increase over controls (crop yield)” value ([3]; cv. Straight Eight, previous year, pH 8.7, CaCl2 4.5 mM) was 101%, the “% increase (wt. of seed)” value ([4]; CaCl2 1 mM, no IAA) was “+27%” and the “% increase (wt./15 ears)” value ([4]; CaCl2 1 mM, no IAA) was “+33%”. The Wt. of seed ([4]; CaCl2 1 mM, no IAA, control 1740 g) was 2211 g, the Wt./15 ears ([4]; CaCl2 1 mM, no IAA, control 1777 g) was 2356 g and the “% increase (wt. of seed)” value ([4]; CaCl2 3 mM, IAA 0.01 mM) was “+34%”. For the same molecule, the “% increase (wt./15 ears)” value ([4]; CaCl2 3 mM, IAA 0.01 mM) was “+46%”, the Wt. of seed ([4]; CaCl2 3 mM, IAA 0.01 mM) was 2342 g and the Wt./15 ears ([4]; CaCl2 3 mM, IAA 0.01 mM) was 2950 g. The “Percent increases (size of seeds)” value ([4]; CaCl2 1 mM, no IAA) was “+18%”, the “Wt. of treated seed” value ([4]; CaCl2 1 mM, no IAA) was 297 g and the “Percent increases (size of seeds)” value ([4]; CaCl2 3 mM, IAA 0.01 mM) was “+27%”. The “Wt. of treated seed” value ([4]; CaCl2 3 mM, IAA 0.01 mM) was 319 g, the “Percent increases (marketable yield)” value (Peas (cv. Dark Skin); CaCl2 10 mM, no IAA) was “+35%” and the “Fresh wt (marketable yield)” value (Peas (cv. Dark Skin); CaCl2 10 mM, no IAA, control 59) was 78 gm. For the same molecule, the “Percent increases (marketable yield)” value (Peas (cv. Dark Skin); CaCl2 15 mM, no IAA) was “+63%”, the “Fresh wt (marketable yield)” value (Peas (cv. Dark Skin); CaCl2 15 mM, no IAA) was 97 gm and the “Percent increases (marketable yield)” value (Peas (cv. Dark Skin); CaCl2 50 mM, IAA 10 μM) was “+32%”. The “Fresh wt (marketable yield)” value (Peas (cv. Dark Skin); CaCl2 50 mM, IAA 10 μM) was 79 gm, the “Percent increases (marketable yield)” value (Peas (cv. Dark Skin); CaCl2 75 mM, IAA 10 μM) was “+69%” and the “Fresh wt (marketable yield)” value (Peas (cv. Dark Skin); CaCl2 75 mM, IAA 10 μM) was 100 gm. The Percent increases (crop yield) (Radishes (cv. Champion); CaCl2 10 mM, no IAA) was 32%, the “Dry wt. (crop yield)” value (Radishes (cv. Champion); CaCl2 10 mM, no IAA, control 93 g) was 123 g and the “Percent increases (crop yield)” value (Radishes (cv. Champion); CaCl2 50 mM, IAA 10 μM) was “+69%”. The “Dry wt. (crop yield)” value (Radishes (cv. Champion); CaCl2 50 mM, IAA 10 μM) was 157 g.
